Data published in patent US8694073B2, “Predicting efficacy of psychiatric treatment” (University of Utah Research Foundation, priority 2008, dated 2014).
Several values for one entry are separate records, joined by “and”; a condition that tells them apart may be missing. Identical values can stand only once.

Key:
MDD subjects = assay: 4-week open T3 augmentation of SSRI, HAMD-17 depression rating; assay type: in vivo, human
From the text: 19 depressed subjects were recruited through advertisements and clinical referrals for a treatment study at Massachusetts General Hospital between 2001 and 2003, and underwent ^31P MRS scans before and after antidepression treatment. All 19 depressed subjects were between ages of 18 and 65, and suffered from MDD, as determined by pre-antidepression treatment score of ≧16 on the HAMD-17 scale. All 19 MDD subjects had previously shown minimal or no response to treatment with an SSRI taken for ≧8 weeks, with ≧4 weeks at a stable dose (fluoxetine ≧40 mg/day, sertraline ≧100 mg/day, paroxetine ≧40 mg/day, citalopram ≧40 mg/day, escitalopram ≧20 mg/day).
The HAMD-17 scale was administered every 2 weeks.
Nonparametric Wilcoxon rank sum (Mann-Whitney U) test was used to compare baseline levels of ^31P MRS metabolites between MDD subjects and normal control subjects. Clinical outcome was defined as response to treatment (HAMD-17 reduction ≧50% during treatment).

TSH = TSH level by solid-phase radioimmunoassay before treatment and at 4-weeks follow-up; assay type: in vivo, human; details: MDD subjects n=19, after 4 weeks T3; baseline TSH 1.75 ± .71

With `N[C@@H](Cc1cc(I)c(Oc2ccc(O)c(I)c2)c(I)c1)C(=O)O` [T3, triiodothyronine] the “mean severity of depression HAMD-17 after 4 weeks of treatment” value (MDD subjects; MDD subjects n=19, T3 50 μg daily added to existing SSRI, baseline HAMD-17 20.3±3.6) was 13.3±6.6, the “treatment responders (HAMD-17 reduction ≧50%)” value (MDD subjects; MDD subjects, T3 50 μg daily added to SSRI, 4 weeks, seven subjects) was 38.9% and 36.8% and the “clinical remission (final HAMD-17<7)” value (MDD subjects; MDD subjects, T3 50 μg daily added to SSRI, 4 weeks, six subjects) was 31.6%. The “Final TSH” value (TSH) was “.10 ± .24 mIU/L”.
